The source of these data is US7024311B1, “COMPUTER-AIDED METHOD FOR THE PROVISION, IDENTIFICATION AND DESCRIPTION OF MOLECULES CAPABLE OF EXHIBITING A DESIRED BEHAVIOR, MORE PARTICULARLY IN THE PHARMACEUTICAL SECTOR, AND MOLECULES OBTAINED BY SAID METHOD” (Synt:EM S.A., priority 1997, dated 2006).

The test system of test [1] is CBA mouse recipients of C57B1/6 donor hearts. Nature of the test: heart-allograft survival in mice (abdominal heterotopic heart transplantation). Type of test: in vivo. Particulars: for MSTSD / mean graft survival time: CBA recipients of C57B1/6 donor hearts, peptide intraperitoneal daily from day of transplantation until day nine. The procedure:
Abdominal heterotopic heart transplantation was carried out as described previously in J. Thorac. Cardiovasc. Surg., vol. 7, page 225 (1969).
CBA mouse recipients of C57B1/6 donor hearts were treated daily with different doses of peptide following organ transplantation. Peptides were dissolved in DMSO and diluted in PBS (final DMSO concentration 10%) before intraperitoneal administration. Animals were treated from the day of transplantation until day nine. Graft survival was monitored daily by direct palpation, and rejection was defined as termination of palpable cardiac contractility. The statistical significance of prolongation of heart allograft survival was calculated using the Mann-Whitney test.

The test system is the same in test [2]. As to conditions: cited from earlier work.

Values joined by “and” are separate entries in the source; they are usually repeats but may differ in a detail not shown here. Identical values can stand only once. Marks after values point to notes of the source that are not given here.

Consider “ENLRIALR [shortened peptide derived from 2702.75-84]”, for which the MSTSD in test [1] (dose not printed in table) is 8.5 0.7 (12).
Substance “NLRIALRYYW [peptide derived from peptide 2702.75-84]” registered a mean graft survival time in test [1] (dose not printed in table) of 11.6 days.
As to REDLRTLLRY, in test [1] (dose not printed in table), the MSTSD is 7.7 1.2 (11).
As for “RENLRIALRY [peptide derived from HLA-B2702, amino acids 75 to 84, reference compound]”, the “allograft survival, reference peptide” value in test [1] (80 mg/kg/day) was “prolonged allograft survival”. The MSTSD in test [1] (dose not printed in table) was 11.4 2.6 (1)* and 11.4 4.1 (1). Moreover, in test [1] (doses lower than 80 mg/kg/day), the “effect at lower doses, reference peptide” value is on record as “no effect was observed”. For the same substance, the “long-term graft survival” value in test [1] (reference peptide administration) is “no long-term graft survival was induced”. Besides, the heart-allograft survival in test [2] (80 mg/kg/day for 10 days following transplantation of B6 donor hearts into CBA recipients, n=8, p<0.01 vs untreated) is 11.4 days. The “heart-allograft survival in mice” value in test [2] (Transplantation, vol. 59, page 455 (1995)) was “prolongs heart-allograft survival in mice”. In addition, in test [2] (doses lower than 80 mg/kg/day), the “effect on graft survival at lower doses” value is “No effect on graft survival was observed”.
As to RESLRLLRGY, in test [1] (dose not printed in table), the MSTSD is on record as 7.5 0.7 (10).
In the case of RMNLQTLRGY, in test [1] (dose not printed in table), the MSTSD was 7.5 0.7 (15).
For the substance RVDKRTLLGY, in test [1] (dose not printed in table), the MSTSD is 7.8 1.0 (8).
Same read-out and setting: the same measure for RVDLRTLLRY: 7.0 0.5 (7).
In the case of “RVNLRIALRY [peptide derived from peptide 2702.75-84]”, the mean graft survival time in test [1] (dose not given) worked out at 13.1 days. In addition, the MSTSD in test [1] (dose not printed in table) is recorded as 11.5 0.5 (3).
RVNLRTALRY: the mean graft survival time in test [1] (dose not printed in table) was 8.5 days.
RVNLRTLRRY: the MSTSD in test [1] (dose not printed in table) is given as 8.0 0.5 (14).
In the case of RVSLRNLLGY, the MSTSD in test [1] (dose not printed in table) is 8.0 0.5 (9).
For the substance YRLAIRLNER, the MSTSD in test [1] (dose not printed in table) is 12.1 2.8 (2); in test [1] (dose not printed in table, listed as yrlairlner), 13.2 2.7 (2).
YRLAIRLNVR: the mean graft survival time in test [1] (dose not printed in table) turned out to be 12.5 days; in test [1] (dose not printed in table, listed as yrlairlnvr), 12.2 days.
Turning to renlpialry, the MSTSD in test [1] (dose not printed in table) was 9.5 2.4 (13).
